# Structures can show the parent of a compound that is named as a salt.
# Assays:
# [1] = target: T1, human cloned CHRM4 receptor (Homo sapiens, UniProt P08173); assay: CHRM4 Ca++ Flux Assay (M4_CHO cells, agonist mode); assay type: cell-based; settings: for Emax / M4 FDSS PA %: Percent Activity (PA); for Emax: read-out: M4 FDSS PA %; for EC50: geometric mean if tested more than once, read-out: M4 FDSS EC50
# T1 construct: expressed in transfected cells; host or cells: CHO-K1 (M4_CHO)
# T1 sequence (P08173 1-479): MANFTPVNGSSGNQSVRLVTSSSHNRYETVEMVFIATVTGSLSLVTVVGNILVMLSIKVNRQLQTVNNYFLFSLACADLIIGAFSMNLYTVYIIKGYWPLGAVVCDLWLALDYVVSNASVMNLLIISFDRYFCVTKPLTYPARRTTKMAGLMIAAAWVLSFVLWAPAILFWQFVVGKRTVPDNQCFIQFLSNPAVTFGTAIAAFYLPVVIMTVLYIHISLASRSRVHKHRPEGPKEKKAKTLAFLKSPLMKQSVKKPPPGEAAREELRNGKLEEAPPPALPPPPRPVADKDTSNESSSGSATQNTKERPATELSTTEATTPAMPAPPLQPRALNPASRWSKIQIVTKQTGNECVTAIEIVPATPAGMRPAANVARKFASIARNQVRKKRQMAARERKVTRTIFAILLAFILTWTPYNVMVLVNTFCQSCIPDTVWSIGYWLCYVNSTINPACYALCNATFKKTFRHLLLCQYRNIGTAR
# Protocol: (§1) The above examples were characterized by measuring the intracellular mobilization of Ca^++ ions caused by signaling events mediated by the receptor. The Intra-cellular Calcium flux levels were captured by the highly sensitive Ca^++ indicator, Calcium Assay Kit (BD Biosciences; Catalog Number 640178. The fluorescent activity from all receptors were monitored by the fluorescent imager, FDSS 7000EX (Hamamatsu) over a span of 3 minutes. The change in Calcium flux was readily captured upon activation with the muscarinic orthosteric agonist, Carbachol.
# CHO-K1 cells stably expressing the human cloned CHRM4 receptor (M4_CHO cells) were grown and maintained in a monolayer culture with F12/HAM (Life Technologies) supplemented with 10% Fetal Bovine Serum, 1X Pen-Strep, and 0.4 mg/mL Geneticin in a humidified atmosphere (5% CO2) at 37° C. The cultures were grown to 80-90% confluency in T150 flasks (Corning) and washed with 1×DPBS then lifted with 0.05% Trypsin (Life Technologies). The cells were harvested in growth media then spun (1K rpm, 3 minutes) and cryopreserved using Recovery Cell Culture Freezing Media (Gibco Technologies). Cells were stored in liquid nitrogen and thawed a day before the assay.
# Prior to the day of the assay, stable M4_CHO cells were thawed and plated on 384 well black walled clear bottom TC treated plates (Greiner Cat #781091) at 12K cells/well using F12/HAM Media supplemented with 10% FBS (Life Technologies) and kept overnight in a humidified atmosphere (5% CO2) at 37° C. The next day, cells were loaded with 20 μL Ca^++ dye (BD Biosciences) using Loading Buffer (HBSS +Ca/+Mg, 20 mM HEPES, 2.5 mM Probenecid) and placed back in cell incubator for a minimum of 1 hour. After incubation, the dye was replaced with 45 μL Assay Buffer (HBSS −Ca/−Mg, 20 mM HEPES, 2.5 mM Probenecid) supplemented with 20 μM ATP (Sigma Aldrich) and kept at room temperature in the dark for 60 minutes before running on a cell imager. The FDSS 7000EX (Hamamatsu) was used to capture Ca^++ traces for a span of 3 minutes from cells treated with 11 point dose of compound in triplicate in order to generate dose response curves in agonist mode. All compounds were serially diluted in DMSO then prepared in Assay Buffer for Ca^++ flux studies. The dose response curves were generated from the average of triplicate wells obtained from each data point and used a non-linear regression of four parameter dose response algorithm. The Percent Activity (PA) was measured to EC100 of Carbachol.
# (§2) If an Example was tested more than once in an assay, then the values below represent the geometric mean of the results from each independent experiment.
# [2] = target: T2, Cloned human M1 receptor (CHRM1) (Homo sapiens, UniProt P11229); assay: CHRM1 Ca++ Flux Assay (HEK293 M1 cells, agonist mode); assay type: cell-based; settings: for Emax / M1 FDSS PA %: Percent Activity (PA); for Emax: read-out: M1 FDSS PA %; for EC50: geometric mean if tested more than once, read-out: M1 FDSS EC50
# T2 construct: expressed in transfected cells; host or cells: HEK293
# T2 sequence (P11229 1-460): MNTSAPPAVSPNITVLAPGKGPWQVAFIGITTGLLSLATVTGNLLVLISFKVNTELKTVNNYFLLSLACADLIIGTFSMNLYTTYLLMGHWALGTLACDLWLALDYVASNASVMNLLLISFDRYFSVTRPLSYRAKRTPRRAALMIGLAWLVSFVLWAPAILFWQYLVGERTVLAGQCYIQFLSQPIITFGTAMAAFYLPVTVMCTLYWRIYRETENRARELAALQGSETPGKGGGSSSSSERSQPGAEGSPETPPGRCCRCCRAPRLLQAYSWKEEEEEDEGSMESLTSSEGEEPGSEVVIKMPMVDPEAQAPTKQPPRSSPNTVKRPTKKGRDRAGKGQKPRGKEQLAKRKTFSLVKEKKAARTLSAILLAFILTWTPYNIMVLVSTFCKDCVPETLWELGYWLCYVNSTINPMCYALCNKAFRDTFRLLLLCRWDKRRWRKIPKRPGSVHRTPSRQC
# Protocol: as §1
# Cloned human M1 receptor (CHRM1) was stably expressed in HEK293 cells and were grown and maintained in a monolayer culture with DMEM/High Glucose (Life Technologies) supplemented with 10% Fetal Bovine Serum, 1×Pen-Strep, and 0.5 mg/mL Geneticin in a humidified atmosphere (5% CO2) at 37° C. The cultures were grown to 90% confluency in T150 flasks (Corning) and washed with 1×DPBS and lifted with 0.05% Trypsin (Life Technologies). The cells were then spun (1K rpm, 3 minutes) and frozen using Recovery Cell Culture Freezing Media (Gibco Technologies). Cells were stored in liquid nitrogen and thawed a day before the assay.
# Prior to the day of the assay, stable HEK293 M1 cells were thawed and plated on 384 well black walled clear bottom TC treated plates (Greiner Cat #781091) at 25K cells/well with DMEM/High Glucose supplemented with 10% FBS (Hyclone) Pen-Strep (Life Technologies) and kept overnight in a humidified atmosphere (5% CO2) at 37° C. The following day, cells were loaded with 20 uL Ca^++ dye (BD Biosciences) using Loading Buffer (HBSS +Ca/+Mg, 20 mM HEPES) and placed back in cell incubator for a minimum of 1 hour. The dye was replaced with 45 μL Assay Buffer (HBSS −Ca/−Mg, 20 mM HEPES) and kept at room temperature prior to running on cell imager. Compounds were prepared in Assay Buffer and 5 uL was added to the cells. The FDSS 7000EX (Hamamatsu) was used to acquire Ca++ traces for 3 minutes from cells treated with 11 point dose in triplicate in order to generate dose response curves in agonist mode. All compounds were serially diluted in DMSO then prepared in Assay Buffer for Ca^++ flux studies. The dose response curves were generated from the average of triplicate wells obtained from each data point and used a non-linear regression of four parameter dose response algorithm. The Percent Activity (PA) was measured to EC100 of Carbachol.
# as §2
Structure (SMILES),Emax [1],EC50 [1],Emax [2],EC50 [2],M4 FDSS PA % [1],M1 FDSS PA % [2]
"Fc1ccc(OC[C@H]2CCO2)c(C2CCN([C@@H]3COC4(C3)CN(c3nncs3)C4)CC2)c1.O=C(O)C(F)(F)F (single isomer, unassigned) [Example 2C, (S)-7-(4-(5-fluoro-2-(((R)-oxetan-2-yl)methoxy)phenyl)piperidin-1-yl)-2-(1,3,4-thiadiazol-2-yl)-5-oxa-2-azaspiro[3.4]octane trifluoroacetate or (S)-7-(4-(5-fluoro-2-(((S)-oxetan-2-yl)methoxy)phenyl)piperidin-1-yl)-2-(1,3,4-thiadiazol-2-yl)-5-oxa-2-azaspiro[3.4]octane trifluoroacetate]",,94 nM,,1150 nM,72%,75%
"Fc1ccc([C@H]2CCOC2)c(C2CCN([C@@H]3COC4(C3)CN(c3nnco3)C4)CC2)c1 (single isomer, unassigned) [Example 3E, (S)-7-(4-(5-fluoro-2-((R)-tetrahydrofuran-3-yl)phenyl)piperidin-1-yl)-2-(1,3,4-oxadiazol-2-yl)-5-oxa-2-azaspiro[3.4]octane or (S)-7-(4-(5-fluoro-2-((S)-tetrahydrofuran-3-yl)phenyl)piperidin-1-yl)-2-(1,3,4-oxadiazol-2-yl)-5-oxa-2-azaspiro[3.4]octane]",,28 nM,,695 nM,86%,86%
"Fc1cc(F)c(OC2CC3(COC3)C2)c(C2CCN([C@@H]3COC4(C3)CN(c3nnco3)C4)CC2)c1 [Example 2AA, (S)-7-(4-(2-((2-oxaspiro[3.3]heptan-6-yl)oxy)-3,5-difluorophenyl)piperidin-1-yl)-2-(1,3,4-oxadiazol-2-yl)-5-oxa-2-azaspiro[3.4]octane]",16%,210 nM,30%,6660 nM,,
"Fc1ccc(C2CCOCC2)c(C2CCN([C@@H]3COC4(C3)CN(c3nnco3)C4)CC2)c1 [Example 3D, (S)-7-(4-(5-fluoro-2-(tetrahydro-2H-pyran-4-yl)phenyl)piperidin-1-yl)-2-(1,3,4-oxadiazol-2-yl)-5-oxa-2-azaspiro[3.4]octane]",84%,63 nM,75%,1410 nM,,
"Fc1cc(OCC2COC2)c(C2CCN([C@@H]3COC4(C3)CN(c3ncco3)C4)CC2)cc1F [Example 4O, (S)-7-(4-(4,5-difluoro-2-(oxetan-3-ylmethoxy)phenyl)piperidin-1-yl)-2-(oxazol-2-yl)-5-oxa-2-azaspiro[3.4]octane]",58%,7 nM,63%,364 nM,,
"COCCOc1ccc(F)cc1C1CCN([C@@H]2COC3(C2)CN(c2ncco2)C3)CC1 [Example 4L, (S)-7-(4-(5-fluoro-2-(2-methoxyethoxy)phenyl)piperidin-1-yl)-2-(oxazol-2-yl)-5-oxa-2-azaspiro[3.4]octane]",52%,27 nM,66%,336 nM,,

# More lines, main results first:
Emax [1],EC50 [1],Emax [2],EC50 [2],Structure (SMILES),M4 FDSS PA % [1],M1 FDSS PA % [2]
87%,31 nM,96%,434 nM,"Fc1ccc(OC[C@H]2COCCO2)c(C2CCN([C@@H]3COC4(C3)CN(c3nncs3)C4)CC2)c1 [Example 5K, (S)-7-(4-(2-(((R)-1,4-dioxan-2-yl)methoxy)-5-fluorophenyl)piperidin-1-yl)-2-(1,3,4-thiadiazol-2-yl)-5-oxa-2-azaspiro[3.4]octane]",,
83%,92 nM,86%,864 nM,"c1ccc(C2CCN([C@@H]3COC4(C3)CN(c3nncs3)C4)CC2)c(OC2COC2)c1 [Example 5Q, (S)-7-(4-(2-(oxetan-3-yloxy)phenyl)piperidin-1-yl)-2-(1,3,4-thiadiazol-2-yl)-5-oxa-2-azaspiro[3.4]octane formate salt]",,
78%,30 nM,83%,368 nM,"Fc1ccc(OC[C@@H]2COCCO2)c(C2CCN([C@@H]3COC4(C3)CN(c3nnco3)C4)CC2)c1 [Example 1F, (S)-7-(4-(2-(((S)-1,4-dioxan-2-yl)methoxy)-5-fluorophenyl)piperidin-1-yl)-2-(1,3,4-oxadiazol-2-yl)-5-oxa-2-azaspiro[3.4]octane]",,
59%,87 nM,22%,1570 nM,"COc1ccccc1C1CCN([C@@H]2COC3(C2)CN(c2ncns2)C3)CC1 [Example 5B, (S)-7-(4-(2-methoxyphenyl)piperidin-1-yl)-2-(1,2,4-thiadiazol-5-yl)-5-oxa-2-azaspiro[3.4]octane]",,
79%,168 nM,85%,2180 nM,"Fc1cc(F)c(O[C@@H]2CCOC2)c(C2CCN([C@@H]3COC4(C3)CN(c3nnco3)C4)CC2)c1 [Example 2CC, (S)-7-(4-(3,5-difluoro-2-(((R)-tetrahydrofuran-3-yl)oxy)phenyl)piperidin-1-yl)-2-(1,3,4-oxadiazol-2-yl)-5-oxa-2-azaspiro[3.4]octane]",,
73%,96 nM,52%,904 nM,"COc1ccccc1C1CCN([C@@H]2COC3(C2)CN(c2nncs2)C3)CC1 [Example 5R, (S)-7-(4-(2-methoxyphenyl)piperidin-1-yl)-2-(1,3,4-thiadiazol-2-yl)-5-oxa-2-azaspiro[3.4]octane]",,

# From US11485742B2, “2-azaspiro[3.4]octane derivatives as M4 agonists” (NOVARTIS AG, priority 2019, dated 2022)
